Reference: PubChem BioAssay AID248 (DTP/NCI, 2004)
Values joined by “and” are separate entries in the source; they are usually repeats but may differ in a detail not shown here. Equal values may be shown once. Inconclusive results and toxic doses are left out. Rule as the data show it: active = T/C of 150% or more; inactive = T/C below 125%.

System: L1210 leukemia ip in BDF1 mice, survival T/C
Experiment: NCI In Vivo Anticancer Drug Screen. Data for tumor model L1210 Leukemia (intraperitoneal) in B6D2F1 (BDF1) mice
Settings: endpoint: mean survival time, higher = longer survival
How it was run: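 Tumor cells were implanted, animals were treated, and survival was followed. The result divides the treated measurement by the vehicle-control measurement.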

[1] = dose: 100.0 mg/kg/injection, schedule: Q01DX009 (ip), vehicle: Klucel (hydroxypropylcellulose) (HPC)
[2] = dose: 200.0 mg/kg/injection, schedule: Q01DX009 (ip), vehicle: Klucel (hydroxypropylcellulose) (HPC)
[3] = dose: 400.0 mg/kg/injection, schedule: Q01DX009 (ip), vehicle: Klucel (hydroxypropylcellulose) (HPC)
[4] = dose: 100.0 mg/kg/injection, schedule: Q04DX003 (ip), vehicle: Klucel (hydroxypropylcellulose) (HPC)
[5] = dose: 200.0 mg/kg/injection, schedule: Q04DX003 (ip), vehicle: Klucel (hydroxypropylcellulose) (HPC)
[6] = dose: 400.0 mg/kg/injection, schedule: Q04DX003 (ip), vehicle: Klucel (hydroxypropylcellulose) (HPC)
[7] = dose: 100.0 mg/kg/injection, schedule: Q04DX002 (ip), vehicle: saline with Tween-80
[8] = dose: 200.0 mg/kg/injection, schedule: Q04DX002 (ip), vehicle: saline with Tween-80
[9] = dose: 400.0 mg/kg/injection, schedule: Q04DX002 (ip), vehicle: saline with Tween-80
[10] = dose: 100.0 mg/kg/injection, schedule: Q01DX001 (ip), vehicle: carboxymethylcellulose (CMC)
[11] = dose: 200.0 mg/kg/injection, schedule: Q01DX001 (ip), vehicle: carboxymethylcellulose (CMC)
[12] = dose: 400.0 mg/kg/injection, schedule: Q01DX001 (ip), vehicle: carboxymethylcellulose (CMC)
[13] = dose: 100.0 mg/kg/injection, schedule: Q01DX001 (ip), vehicle: saline
[14] = dose: 100.0 mg/kg/injection, schedule: Q01DX009 (ip), vehicle: saline
[15] = dose: 200.0 mg/kg/injection, schedule: Q01DX009 (ip), vehicle: saline
[16] = dose: 400.0 mg/kg/injection, schedule: Q01DX009 (ip), vehicle: saline
[17] = dose: 100.0 mg/kg/injection, schedule: Q04DX002 (ip), vehicle: Klucel (hydroxypropylcellulose) (HPC)
[18] = dose: 200.0 mg/kg/injection, schedule: Q01DX009 (ip), vehicle: saline with Tween-80
[19] = dose: 100.0 mg/kg/injection, schedule: Q04DX003 (ip), vehicle: saline with Tween-80
[20] = dose: 200.0 mg/kg/injection, schedule: Q04DX003 (ip), vehicle: saline with Tween-80
[21] = dose: 400.0 mg/kg/injection, schedule: Q04DX003 (ip), vehicle: saline with Tween-80

Measured: T/C

COc1cc(C)c(CN(C)C)c(OC)c1
inactive: dose: 27.0 mg/kg/injection, schedule: Q01DX Z (ip), vehicle: methylcellulose (MC) 102 % of control

CCN(CC)CCNC(c1ccc(OC)cc1)C(Cl)(Cl)Cl (stereo not drawn)
inactive: dose: 75.0 mg/kg/injection, schedule: Q01DX001 (ip), vehicle: saline 97 % of control | dose: 150.0 mg/kg/injection, schedule: Q01DX001 (ip), vehicle: saline 91 % of control

NC(=S)N/N=C/c1cccc2ccccc12
inactive: dose: 100.0 mg/kg/injection, schedule: Q04DX002 (ip), vehicle: gum acacia 91 % of control | dose: 200.0 mg/kg/injection, schedule: Q04DX002 (ip), vehicle: gum acacia 98 % of control | dose: 400.0 mg/kg/injection, schedule: Q04DX002 (ip), vehicle: gum acacia 117 % of control

CCCCCCCCCC(=O)N1CCC(CCCc2ccccc2)CC1
inactive: dose: 75.0 mg/kg/injection, schedule: Q01DX001 (ip), vehicle: carboxymethylcellulose (CMC) 95 % of control | dose: 150.0 mg/kg/injection, schedule: Q01DX001 (ip), vehicle: carboxymethylcellulose (CMC) 92 % of control | dose: 300.0 mg/kg/injection, schedule: Q01DX001 (ip), vehicle: carboxymethylcellulose (CMC) 95 % of control

CC(C)N(C(=O)c1ccccc1Cl)c1ccccc1
inactive: [1] 92 % of control | [2] 103 % of control | [3] 103 % of control

O=C1C(c2ccccc2)=C(c2ccccc2)C2(c3ccccc3)CN=NC12c1ccccc1 (stereo not drawn)
inactive: [4] 90 % of control | [5] 94 % of control | [6] 92 % of control

O=C1NC(=O)C2=C1SCCS2
inactive: [7] 91 % of control | [8] 109 % of control | [9] 109 % of control

COc1ccc(OC)c(CCO)c1
inactive: dose: 50.0 mg/kg/injection, schedule: Q01DX001 (ip), vehicle: carboxymethylcellulose (CMC) 93 % of control | [10] 98 % of control | [11] 91 % of control | [12] 93 % of control

C/C=C/C(=O)C12CCCCCCCCCC(=C1N1CCCCC1)C(=O)CC2C (stereo not drawn)
inactive: [13] 93 % of control | [14] 90 % of control | dose: 200.0 mg/kg/injection, schedule: Q01DX001 (ip), vehicle: saline 98 % of control | [15] 92 % of control | dose: 400.0 mg/kg/injection, schedule: Q01DX001 (ip), vehicle: saline 98 % of control | [16] 98 % of control

BrC=C=C1CCCCC1
inactive: [14] 98 % of control | [15] 93 % of control | [16] 95 % of control

O=C(O)CCCc1cc(O)c2c(c1O)C(=O)c1ccccc1C2=O
inactive: dose: 100.0 mg/kg/injection, schedule: Q01DX001 (ip), vehicle: saline sonified 98 % of control | dose: 200.0 mg/kg/injection, schedule: Q01DX001 (ip), vehicle: saline sonified 102 % of control | dose: 400.0 mg/kg/injection, schedule: Q01DX001 (ip), vehicle: saline sonified 118 % of control

Cc1ccc(N=Nc2c(C)nn(C(N)=S)c2C)cc1
inactive: dose: 75.0 mg/kg/injection, schedule: Q01DX001 (ip), vehicle: other 100 % of control | dose: 150.0 mg/kg/injection, schedule: Q01DX001 (ip), vehicle: other 103 % of control

Fc1c(F)c(F)c(Oc2c(F)c(F)[c]([Sn]([c]3c(F)c(F)c(Oc4c(F)c(F)c(F)c(F)c4F)c(F)c3F)([c]3c(F)c(F)c(Oc4c(F)c(F)c(F)c(F)c4F)c(F)c3F)[c]3c(F)c(F)c(Oc4c(F)c(F)c(F)c(F)c4F)c(F)c3F)c(F)c2F)c(F)c1F
inactive: [1] 104 % of control | [4] 103 % of control | [2] 105 % of control | [5] 102 % of control | [3] 104 % of control | [6] 102 % of control

O=C(O)c1cccnc1C(=O)Nc1cccc2ccccc12
inactive: [7] 105 % of control | [8] 105 % of control | [9] 105 % of control

COc1c(Cl)c(Cl)c(Cl)c(Cl)c1Cl
inactive: [14] 89 % of control | dose: 100.0 mg/kg/injection, schedule: Q04DX003 (ip), vehicle: acetone 95 % of control | [15] 89 % of control | dose: 200.0 mg/kg/injection, schedule: Q04DX003 (ip), vehicle: acetone 94 % of control | dose: 400.0 mg/kg/injection, schedule: Q04DX003 (ip), vehicle: acetone 96 % of control

CCOC(=O)Nc1cc(NC(c2ccccc2)c2ccccc2)c(N)c(N)n1
inactive: [10] 102 % of control | [1] 98 % of control | [11] 122 % of control | [2] 98 % of control | [12] 107 % of control | [3] 91 % of control

c1ccc(/C(=N\Nc2nc3ccccc3s2)c2ccncc2)cc1
inactive: [1] 89 % of control | [2] 91 % of control | [3] 96 % of control

C=CC[n+]1cccc(S(=O)(=O)[O-])c1
inactive: dose: 100.0 mg/kg/injection, schedule: Q04DX003 (ip), vehicle: saline 101 % of control | dose: 200.0 mg/kg/injection, schedule: Q04DX003 (ip), vehicle: saline 98 % of control | dose: 400.0 mg/kg/injection, schedule: Q04DX003 (ip), vehicle: saline 103 % of control

CCc1cc2oc(C)c(C)c2c(N=Nc2ccc(Cl)cc2)c1O
inactive: [17] 99 % of control | dose: 200.0 mg/kg/injection, schedule: Q04DX002 (ip), vehicle: Klucel (hydroxypropylcellulose) (HPC) 96 % of control | dose: 400.0 mg/kg/injection, schedule: Q04DX002 (ip), vehicle: Klucel (hydroxypropylcellulose) (HPC) 99 % of control

CCOC(=O)N1c2ccccc2C=CC1/C(N)=N/O (stereo not drawn)
inactive: dose: 50.0 mg/kg/injection, schedule: Q01DX009 (ip), vehicle: Klucel (hydroxypropylcellulose) (HPC) 95 % of control | [1] 89 % of control | [4] 97 % of control | [5] 91 % of control

O=C(OC12CCCCC1CCCC2)c1ccc([N+](=O)[O-])cc1 (stereo not drawn)
inactive: [4] 96 % of control | [18] 90 % of control | [5] 101 % of control | [6] 96 % of control

O=S(=O)(O/N=C1\N=C(NOS(=O)(=O)c2ccccc2)c2ccccc21)c1ccccc1
inactive: dose: 100.0 mg/kg/injection, schedule: Q01DX001 (ip), vehicle: saline with Tween-80 87 % of control and 92 % of control | [7] 102 % of control and 90 % of control | [19] 101 % of control | dose: 200.0 mg/kg/injection, schedule: Q01DX001 (ip), vehicle: saline with Tween-80 97 % of control and 91 % of control | [8] 98 % of control and 92 % of control | [20] 94 % of control | dose: 400.0 mg/kg/injection, schedule: Q01DX001 (ip), vehicle: saline with Tween-80 87 % of control and 92 % of control | [9] 112 % of control and 87 % of control | [21] 92 % of control

Nc1nnnn1-c1cccc(Cl)c1
inactive: [19] 96 % of control | [20] 96 % of control | [21] 94 % of control

CC1CC(C)(C)CC2(C1)OCC(CCl)O2 (stereo not drawn)
inactive: dose: 100.0 mg/kg/injection, schedule: Q04DX003 (ip), vehicle: saline sonified 100 % of control | dose: 200.0 mg/kg/injection, schedule: Q04DX003 (ip), vehicle: saline sonified 98 % of control | dose: 400.0 mg/kg/injection, schedule: Q04DX003 (ip), vehicle: saline sonified 96 % of control

O=C(COc1ccc(Cl)cc1)OCCO
inactive: dose: 100.0 mg/kg/injection, schedule: Q01DX001 (ip), vehicle: gum acacia 90 % of control | dose: 200.0 mg/kg/injection, schedule: Q01DX001 (ip), vehicle: gum acacia 96 % of control | dose: 400.0 mg/kg/injection, schedule: Q01DX001 (ip), vehicle: gum acacia 95 % of control

CC(CCC(C)C(=O)O)C(=O)O (stereo not drawn)
inactive: dose: 100.0 mg/kg/injection, schedule: Q01DX009 (ip), vehicle: saline with Tween-80 103 % of control | [18] 102 % of control | dose: 400.0 mg/kg/injection, schedule: Q01DX009 (ip), vehicle: saline with Tween-80 103 % of control

OC(COc1cccc2ccccc12)CN1CCCCC1 (stereo not drawn)
inactive: dose: 25.0 mg/kg/injection, schedule: Q04DX002 (ip), vehicle: Klucel (hydroxypropylcellulose) (HPC) 106 % of control | dose: 50.0 mg/kg/injection, schedule: Q04DX002 (ip), vehicle: Klucel (hydroxypropylcellulose) (HPC) 98 % of control | [17] 92 % of control

CC(C)(NC(=O)NCCCl)c1ccccc1
inactive: [13] 96 % of control
